Data reported in paper PMC8328489, “Automated Synthesis and Initial Evaluation of (4′-Amino-5′,8′-difluoro-1′H-spiro[piperidine-4,2′-quinazolin]-1-yl)(4-[^18F]fluorophenyl)methanone for PET/MR Imaging of Inducible Nitric Oxide Synthase” (Molecular Imaging, 2021).
Where two headings read alike, the source gives them in different places. Blank lines part the entries; values can stand above or below the compound they belong to.

Legend:
[1] = Log P measurement (1-octanol/phosphate buffer, UV); assay type: physicochemical; details: 1-octanol / 0.02 M phosphate buffer; 1-octanol / phosphate buffer pH 7.4
Description: The partition coefficient of FBAT, determined between 1-octanol and 0.02 M phosphate buffer at pH 7.4, was measured by UV spectrophotometer (SPARK 10 M from Tecan) at wavelength 230 nm.

iNOS [2] = details: cited from earlier work
nNOS = tested on: nNOS; design: method as in PMID 11327580; details: cited from earlier work
eNOS = details: cited from earlier work; for selectivity vs. eNOS: iNOS vs. eNOS
[3] = dog, 10 min postinjection; cited from earlier work
[4] = within 5 min postinjection; cited from earlier work
[5] = tested on: murine microglial BV2 cells; test: LPS-dependent nitric oxide (NO) production, Griess assay; assay type: cell-based; details: pretreatment 0.1 or 1 mM
Description: Briefly, murine microglial BV2 cells were cultured in high-glucose Dulbecco's modified Eagle's medium (DMEM) supplemented with 100 U/mL penicillin. The cells were cultured in 6-well plates (~50,000 cells/well) in a humidified 5% CO2 atmosphere at 37°C until ∼60–70% confluent, washed three times with fresh media, and cultured in complete media containing LPS (0, 50, 100, or 200 ng/mL, Sigma-Aldrich, St. Louis, MO, USA). At the indicated time points, the culture media were harvested.
To assay NO, 100 μL aliquots of culture media were added to 100 μL of Griess reagent (1% sulfanilamide in 5% H3PO4) in 96-well plates, incubated at room temperature for 10 min; then, 50 μL NED Griess reagent (0.1% N-naphthyl-ethylenediamine dihydrochloride) was added and incubated for 10 min, and the absorbance values were determined at 540 nm using a TECAN Sunrise ELISA Reader. Fresh culture medium was used as a blank. The concentrations of nitrite were determined by comparison with a standard curve of sodium nitrite prepared in cell culture media.
(§1) iNOS is the enzyme responsible for NO generation in BV2 cells; therefore, accumulation of [^18F]FBAT in BV2 cells before or after iNOS inhibitor versus NO production was also assessed.

iNOS [6] = test: Immunohistochemistry of iNOS in brain sections; assay type: in vivo, C57BL/6 mice; details: pretreatment, vs LPS 3 h group
Description: After imaging, mice were terminally anesthetized with ketamine/xylazine and perfused with 4% paraformaldehyde, and the brains were dissected, postfixed overnight in 4% paraformaldehyde at 4°C. Five-micrometer thick paraffin-embedded brain tissues were deparaffinized, rehydrated, microwaved in 10 mM citrate buffer (pH 6.0) at 100°C for 10 min for antigen retrieval, washed, incubated in 3% […] for 15 min at RT to inhibit endogenous peroxidases, and blocked in blocking solution for 60 min at RT.
Sections were incubated with primary NOS2/NOS1 antibodies (Cat# MAB 1627; Abnova, Walnut, CA, USA) diluted 1 : 100 overnight at 4°C, developed using the Vectastain Elite kit (Vector Laboratories, Burlingame, CA) following the manufacturer's instructions, and examined using an AxioScope A1 microscope (Zeiss, Oberkochen, Germany) equipped with an Axiocam 512 color digital camera (Zeiss).
The immunohistochemistry images were converted into 8-bit grayscale images in the range. Immunostaining intensity was manually measured in the region of interest (ROI). The median (25%, 75% interquartile range) percentage score for each group (control, LPS 3 h, and LPS 24 h) was calculated as the sum of the individual number of slides within the group.

iNOS [7] = molecular target: T1, iNOS (Mus musculus, UniProt P29477); test: In vivo brain PET/MR imaging of LPS-induced iNOS expression (SUV, SUR, AUC) incl. aminoguanidine blocking; design: species or system C57BL/6 mice; details: 50 mg/kg i.p. pretreatment
T1 construct: tracer to detect iNOS expression in mice injected with lipopolysaccharide (LPS) to induce brain inflammation; from tissue; host or cells: brain of living C57BL/6 mice (LPS-induced); fixed brain sections for IHC
Description: For the imaging experiments, twelve C57BL/6 mice were injected i.p. with 0.9% NaCl, eighteen mice were injected i.p. with 0.1 mL of LPS in saline (5 mg/kg), and six mice were injected i.p. with aminoguanidine (Sigma-Aldrich) 30 min prior to 5 mg/kg LPS. In vivo imaging was performed 3 h or 24 h after injection of LPS; then, the mice were immediately humanely euthanized and the brains were removed for immunostaining.
Mice (n = 30) were anesthetized with 2% isoflurane (in oxygen) and injected with [^18F]FBAT (11.1 MBq; 0.3 mCi) via the tail vein. Dynamic PET images were obtained in fully three-dimensional list mode for 30 min using a small animal SuperArgus 2r PET system (SEDECAL, Madrid, Spain) or 7T PETMR Inline (Bruker, Rheinstetten, Germany; energy window, 350-650 keV; timing window, 6 ns). Images were acquired every 10 s for 12 images, 60 s for three images, 300 s for three images, or 600 s for […]. The anatomical structure of the brain was imaged using T2 MRI. The MRI sequences included 0.5 mm thick T2 Turbo RARE high-resolution images (TR = 3000 ms, TE, 46 ms, matrix, 512 × 256, average, 40, slice number, 30, field of view, 20 × 10 mm).
After determining the optimal imaging time point for [^18F]FBAT, we performed a blocking study using a selective iNOS inhibitor to assess the specificity of the tracer for iNOS. Separate 7T PET/MR studies with [^18F]FBAT were performed for mice (n = 6) administered a bolus of aminoguanidine (50 mg/kg i.p.) 30 min prior to administration of [^18F]FBAT. The time course of [^18F]FBAT radioactivity in the brain after administration of the iNOS inhibitor was assessed and compared to that of the mice in the LPS 3 h group.
Images were reconstructed by the Fourier rebinning algorithm and two-dimensional filtered back projection using a ramp filter with a cutoff at Nyquist. The regional radioactivity concentration (kBq/cc) of [^18F]FBAT was estimated from the mean pixel values within the region of interest (ROI) corresponding to MR images of various organs and regions of the brain. ROI for carotid artery, heart muscle, lung, liver, spleen, and kidney were defined and time activity curves (TACs) generated. TACs for whole brain, cortex, cerebellum, and brainstem were also determined as described above.
The concentration of radioactivity (kBq/cc, μCi/cc) was converted to standardized uptake value (SUV), and the mean and standard deviation (SD) of radiotracer accumulation values were calculated for different organs and regions of the brain. Data were analyzed with PMOD 4.0 software (PMOD Technologies Ltd., Zurich, Switzerland).

[8] = tested on: murine microglial BV2 cells; test: In vitro [^18F]FBAT uptake assay; assay type: cell-based; details: pretreatment 0.1 mM or 1 mM for 1 h
Description: BV2 cells were cultured as described above, washed three times with fresh medium, pretreated with a selective iNOS inhibitor, aminoguanidine (AMG), (0, 1, or 0.1 mM) for 1 h, and then treated with cell culture media containing LPS and the inhibitor. At the indicated time points, the cells were washed thrice with fresh cell culture media, then incubated in fresh cell culture media continuing the radiotracer [^18F]FBAT at 0.37 MBq/mL for 15, 30, or 60 min, harvested by gentle scraping, and pelleted by centrifugation at 1500 g for 2 min. The weight of the cell pellet and 0.1 mL of the radioactive supernatant was determined. A Packard 5500 gamma counter (PerkinElmer, Billerica, MA, USA) was used to quantify radioactivity as cpm/g cells or cpm/mL media, respectively. Cell-to-medium radioactivity concentration ratios were calculated and plotted over time to evaluate the kinetics of accumulation of the radiotracer.
as §1

logP [1]: 1.4 ± 0.27
SMILES: NC1=NC2(CCN(C(=O)c3ccc(F)cc3)CC2)Nc2c(F)ccc(F)c21 [FBAT, (4′-amino-5′,8′-difluoro-1′H-spiro[piperidine-4,2′-quinazolin]-1-yl)(4-fluorophenyl)methanone]

SMILES: NC1=NC(c2ccc(F)cc2)Cc2cccc(F)c21 (stereo not drawn) [FFDI, 8-fluoro-3-(4-fluorophenyl)-3,4-dihydro-1-isoquino-linamine]
IC50 (iNOS [2]; read-out: IC50 (affinity for iNOS)): 160 nM
selectivity for iNOS vs. nNOS (nNOS): 100 fold
selectivity for iNOS vs. eNOS (eNOS): ~ 1000 fold

SMILES: COC(=O)[C@@H](N)CCCN=C(N)N[N+](=O)[O-] [[^11C]L-NAME, N-omega-nitro-L-arginine [^11C]methyl ester]
IC50 (iNOS [2]; read-out: iNOS IC50): 20000 nM
fraction of radioactivity present as [^11C]methanol (metabolite) [3]: 65%

SMILES: CSC(=N)N [[^11C]MITU, S-[^11C]methylisothiourea]
IC50 (iNOS [2]; read-out: iNOS IC50): 3000 nM

SMILES: [11CH3]SC(=N)N [[^11C]MITU, S-[^11C]methylisothiourea]
selectivity vs. eNOS (eNOS): 2.3 fold

SMILES: Cc1cc(N)nc(CC(C)F)c1 (stereo not drawn) [[^18F]9, [^18F]6-(2-fluoropropyl)-4-methyl-pyridin-2-amine]
parent fraction of activity in the blood [4]: 40.3%

SMILES: N=C(N)SCC[18F] [[^18F]FEITU, S-(2-[^18F]fluoroethyl)isothiourea]
IC50 (iNOS [2]; read-out: iNOS IC50): 140 nM
selectivity vs. eNOS (eNOS): 9 fold

SMILES: N=C(N)NN [aminoguanidine, reference compound]
effect on LPS-induced NO production [5]: completely abolished
effect on LPS-induced iNOS immunoactivity, brainstem (iNOS [6]): significantly reduced
effect on LPS-induced iNOS immunoreactivity, cortex (iNOS [6]): significantly reduced
effect on [^18F]FBAT accumulation (SUV, AUC, Vt) in brain of LPS-induced mice (iNOS [7]): significantly decreased
effect on [^18F]FBAT accumulation (SUV, AUC, Vt) in brain of LPS-induced mice (iNOS [7]; listed as Aminoguanidine): significantly reduced
effect on LPS-induced [^18F]FBAT accumulation in BV2 cells [8]: inhibited
effect on LPS-induced [^18F]FBAT accumulation in BV2 cells ([8]; listed as AMG): significantly reduced
